Test system: 64 cancer cell lines
Assay: Anti-proliferative activity across a panel of 64 cancer cell lines (CellTiter-Glo)
Assay type: cell-based
Method: Prior to testing, cells were grown and expanded in culture flasks to provide sufficient amounts of starting material. Cells were then diluted to the appropriate densities and added directly to the compound-spotted 384-well plates. Cells were allowed to grow for 72 h at 37° C./5% CO2. At the time when compound was added (to), initial cell number was assessed via a viability assay (Cell Titer-Glo) by quantifying the level of luminescence generated by ATP present in viable cells. After 72 h, cell viability of compound-treated cells was assessed via Cell Titer-Glo and luminescence measurement. The apoptotic response to Compound 1 was assessed by quantifying the activities of caspase 3 and caspase 7 (Caspase 3/7-Glo) in treated cells and DMSO control cells.
Cells were treated with DMSO or increasing concentrations of Compound 1 for 72 h. Proliferation was measured using CellTiter-Glo as described.

[1] = HUH-6-clone5, 72 h, HuH-6-Clone5 (Liver)
[2] = HepG2/C3A, 72 h, HepG2/C3A (Liver)
[3] = Homo sapiens, A549, 72 h, A549 (Lung)
[4] = Homo sapiens, A-375, 72 h, A375 (Melanoma)
[5] = Homo sapiens, BXPC-3, 72 h, BxPC-3 (Pancreas)
[6] = Homo sapiens, CFPAC-1, 72 h, CFPAC-1 (Pancreas)
[7] = Homo sapiens, COLO 205, 72 h, Colo 205 (Colon)
[8] = Homo sapiens, HCT-116, 72 h, HCT-116 (Colon)
[9] = Homo sapiens, HOP-62, 72 h, HOP62 (Lung)
[10] = Homo sapiens, HOP-92, 72 h, HOP92 (Lung)
[11] = Homo sapiens, HT-29, 72 h, HT29 (Colon)
[12] = Homo sapiens, HT-29, 72 h, HT29/219 (Colon)
[13] = Homo sapiens, Hep3B, 72 h, Hep3B (Liver)
[14] = Homo sapiens, HepG2, 72 h, HepG2 (Liver)
[15] = Homo sapiens, HuCCT-1, 72 h, HuCCT1 (Liver)
[16] = Homo sapiens, HuH-1, 72 h, HuH-1 (Liver)
[17] = Homo sapiens, Huh-7, 72 h, HuH-7 (Liver)
[18] = Homo sapiens, K562, 72 h, K-562 (Leukemia)
[19] = Homo sapiens, KATO III, 72 h, KATOIII, Stomach
[20] = Homo sapiens, LOX IMVI, 72 h, LOX-IMVI (Melanoma)
[21] = Homo sapiens, LoVo, 72 h, LOVO (Colon)
[22] = Homo sapiens, MDA-MB-231, 72 h, MDA-MB-231 (Breast)
[23] = Homo sapiens, Malme-3M, 72 h, MALME-3M (Melanoma)
[24] = Homo sapiens, NCI-H23, 72 h, NCI-H23 (Lung)
[25] = Homo sapiens, NCI-H28, 72 h, NCI-H28 (Lung)
[26] = Homo sapiens, NCI-H226, 72 h, NCI-H226 (Lung)
[27] = Homo sapiens, NCI-H441, 72 h, NCI-H441 (Lung)
[28] = Homo sapiens, NCI-H460, 72 h, NCI-H460 (Lung)
[29] = Homo sapiens, NCI-H520, 72 h, NCI-H520 (Lung)
[30] = Homo sapiens, NCI-H838, 72 h, NCI-H838 (Lung)
[31] = Homo sapiens, NCI-H1299, 72 h, NCI-H1299 (Lung)
[32] = Homo sapiens, NCI-H1703, 72 h, NCI-H1703 (Lung)
[33] = Homo sapiens, NCI-H1755, 72 h, NCI-H1755 (Lung)
[34] = Homo sapiens, NCI-H1975, 72 h, NCI-H1975 (Lung)
[35] = Homo sapiens, NCI-H2122, 72 h, NCI-H2122 (Lung)
[36] = Homo sapiens, PANC-1, 72 h, PANC-1 (Pancreas)
[37] = Homo sapiens, PLC-PRF-5, 72 h, PLC-PRF-5 (Liver)
[38] = Homo sapiens, RPMI-8226, 72 h, RPMI-8226 (Multiple myeloma)
[39] = Homo sapiens, SK-HEP1, 72 h, SK-HEP-1 (Liver)
[40] = Homo sapiens, SNU-182, 72 h, SNU-182 (Liver)
[41] = Homo sapiens, SNU-387, 72 h, SNU-387 (Liver)
[42] = Homo sapiens, SNU-398, 72 h, SNU-398 (Liver)
[43] = Homo sapiens, SNU-423, 72 h, SNU-423 (Liver)
[44] = Homo sapiens, SNU-449, 72 h, SNU-449 (Liver)
[45] = Homo sapiens, SNU-475, 72 h, SNU-475 (Liver)
[46] = Homo sapiens, SW48, 72 h, SW48 (Colon)
[47] = Homo sapiens, SW900, 72 h, SW900 (Lung)
[48] = Homo sapiens, SW1417, 72 h, SW1417 (Colon)
[49] = Homo sapiens, SW-620, 72 h, SW620 (Colon)
[50] = Mel202, 72 h, MEL-202 (Melanoma)

What does the source list for `C[C@]1(C(N)=O)CC[C@@H](n2c(Nc3c(Cl)cc(Cl)cc3Cl)nc3cnc(N[C@@H]4CCOC[C@H]4F)nc32)CC1` [Compound 1, cis-4-[2-{[(3S,4R)-3-fluorooxan-4-yl]amino}-8-(2,4,6-trichloroanilino)-9H-purin-9-yl]-1-methylcyclohexane-1-carboxamide]?
GI50 (72 h, 92-1 (Melanoma)): 10.2 nM; IC50 (72 h, 92-1 (Melanoma)): 31.6 nM; GI50 (72 h, AGS, Stomach): 23 nM; IC50 (72 h, AGS, Stomach): 28 nM; GI50 (72 h, FOCUS (Liver)): 1500 nM; IC50 (72 h, FOCUS (Liver)): 4300 nM; GI50 (72 h, HLE (Liver)): 4850 nM; IC50 (72 h, HLE (Liver)): 9620 nM; GI50 (72 h, HLF (Liver)): 6680 nM; IC50 (72 h, HLF (Liver)): 7390 nM; GI50 (72 h, JHH-5 (Liver)): 4.5 nM; IC50 (72 h, JHH-5 (Liver)): 7 nM; GI50 (72 h, JHH-6 (Liver)): 10000 nM; IC50 (72 h, JHH-6 (Liver)): 10000 nM; GI50 (72 h, PC-9 (Lung)): 217 nM; IC50 (72 h, PC-9 (Lung)): 379 nM; proliferation of multiple cancer cell lines (72 h, CRC, melanoma, gastric cancer, HCC, lung cancer, pancreatic cancer, leukemia, multiple myeloma): inhibit the proliferation; GI50 [1]: 29.1 nM; IC50 [1]: 1220 nM; GI50 [2]: 4620 nM; IC50 [2]: 10000 nM; GI50 [3]: 40.2 nM; IC50 [3]: 82.2 nM; GI50 [4]: 21 nM; IC50 [4]: 24 nM; GI50 [5]: 36.8 nM; IC50 [5]: 70.8 nM; GI50 [6]: 1950 nM; IC50 [6]: 7400 nM; GI50 [7]: 25 nM; IC50 [7]: 40 nM; GI50 [8]: 17 nM; IC50 [8]: 22 nM; GI50 [9]: 339 nM; IC50 [9]: 3490 nM; GI50 [10]: 108 nM; IC50 [10]: 117 nM; GI50 [11]: 16 nM; IC50 [11]: 25 nM; GI50 [12]: 1.7 nM; IC50 [12]: 4.5 nM; GI50 [13]: 5.3 nM; IC50 [13]: 14.7 nM; GI50 [14]: 34.6 nM; IC50 [14]: 1240 nM; GI50 [15]: 25.3 nM; IC50 [15]: 1300 nM; GI50 [16]: 235 nM; IC50 [16]: 7260 nM; GI50 [17]: 21.2 nM; IC50 [17]: 489 nM; GI50 [18]: 5420 nM; IC50 [18]: 6030 nM; GI50 [19]: 7050 nM; IC50 [19]: 8020 nM; GI50 [20]: 22 nM; IC50 [20]: 25 nM; GI50 [21]: 63 nM; IC50 [21]: 126 nM; GI50 [22]: 35.3 nM; IC50 [22]: 3330 nM; GI50 (Homo sapiens, MIA PaCa-2, 72 h, MiaPaCa-2 (Pancreas)): 47 nM; GI50 [23]: 1.1 nM; IC50 [23]: 3.8 nM; GI50 [24]: 36.4 nM; IC50 [24]: 182 nM; GI50 [25]: 1280 nM; IC50 [25]: 2360 nM; GI50 [26]: 1630 nM; IC50 [26]: 6150 nM; GI50 [27]: 184 nM; IC50 [27]: 6350 nM; GI50 [28]: 244 nM; IC50 [28]: 644 nM; GI50 [29]: 5240 nM; IC50 [29]: 8370 nM; GI50 [30]: 567 nM; IC50 [30]: 9180 nM; GI50 [31]: 234 nM; IC50 [31]: 498 nM; GI50 [32]: 1350 nM; IC50 [32]: 1680 nM; GI50 [33]: 40.4 nM; IC50 [33]: 58.4 nM; GI50 [34]: 2050 nM; IC50 [34]: 3190 nM; GI50 [35]: 31.8 nM; IC50 [35]: 42.7 nM; GI50 [36]: 5440 nM; IC50 [36]: 10000 nM; GI50 [37]: 888 nM; IC50 [37]: 4010 nM; GI50 [38]: 3240 nM; IC50 [38]: 9740 nM; GI50 [39]: 7040 nM; IC50 [39]: 10000 nM; GI50 [40]: 76.4 nM; IC50 [40]: 4980 nM; GI50 [41]: 33.2 nM; IC50 [41]: 104 nM; GI50 [42]: 265 nM; IC50 [42]: 1970 nM; GI50 [43]: 6240 nM; IC50 [43]: 10000 nM; GI50 [44]: 10000 nM; IC50 [44]: 10000 nM; GI50 [45]: 9990 nM; IC50 [45]: 10000 nM; GI50 [46]: 5.7 nM; IC50 [46]: 88 nM; GI50 [47]: 4.8 nM; IC50 [47]: 21.7 nM; GI50 [48]: 0.5 nM; IC50 [48]: 16.9 nM; GI50 [49]: 47 nM; IC50 [49]: 92 nM; GI50 (JHH1, 72 h, JHH-1 (Liver)): 1.6 nM; IC50 (JHH1, 72 h, JHH-1 (Liver)): 94.6 nM; GI50 (JHH7, 72 h, JHH-7 (Liver)): 83.4 nM; IC50 (JHH7, 72 h, JHH-7 (Liver)): 548 nM; GI50 (JHH-2, 72 h, JHH-2 (Liver)): 129 nM; IC50 (JHH-2, 72 h, JHH-2 (Liver)): 4480 nM; GI50 (JHH-4, 72 h, JHH-4 (Liver)): 363 nM; IC50 (JHH-4, 72 h, JHH-4 (Liver)): 2320 nM; GI50 [50]: 38.5 nM; IC50 [50]: 96.8 nM
